# Measurements from patent US20100113597A1, “PHARMACEUTICAL COMPOSITION FOR PREVENTION OF PROGRESS OF INTESTINAL CONSTRICTION ASSOCIATED WITH CROHN'S DISEASE” (priority 2007, published 2010).
# “Also recorded” adds a separate entry of the source.
# Tests used:
# Crohn's disease = conditions: single case; tranilast with enteral nutrients, low residue diet and mepenzolate bromide; cited from earlier work
# [1] = system: intestinal stricture associated with Crohn's disease; assay: Effect of tranilast on progression of intestinal stricture in Crohn's disease patients, randomized against a group not given tranilast; assay type: in vivo, human (Crohn's disease patients)
# Procedure: In 24 Crohn's disease patients with non-symptomatic intestinal stricture, the effect by tranilast on the progression of intestinal stricture associated with Crohn's disease was evaluated and compared between one group administered tranilast and another group not administered tranilast. There was no significant difference in backgrounds of the patients between the groups. The 24 patients were randomly divided into two groups consisting of a group administered tranilast (12 cases) and a group not administered tranilast (12 cases). […] The primary endpoint was a cumulative non-symptomatic stricture rate which was a rate of cases wherein severe symptomatic intestinal stricture requiring balloon dilatation or surgery occurred. In addition, the diameters of the stricture at the beginning of observation (basal diameter) and at the end of observation (final diameter) were measured. The secondary endpoint was a monthly progression rate of the stricture obtained from the rate of the final diameter relative to the basal diameter.
smiles,measurement,setting,value
"COc1ccc(C=CC(=O)Nc2ccccc2C(=O)O)cc1OC [tranilast, N-(3,4-dimethoxycinnamoyl)anthranilic acid]",period maintained without exacerbation of symptoms of Crohn's disease,Crohn's disease,3 years
same,monthly progression rate of the stricture,"[1]; from the final diameter relative to the basal diameter, −0.86% in the group not given tranilast",-0.48%
same,average diameter of the stricture at the end of observation (final diameter),"[1]; group administered tranilast 200 mg three times daily, median observation 782 days",5.60 mm
same,average diameter of the stricture at the beginning of observation (basal diameter),"[1]; group administered tranilast, baseline",6.40 mm
same,cases withdrawn due to discontinued administration because of a reduced peripheral white blood cell count,"[1]; of 12 cases, tranilast 200 mg three times daily",1 case
same,number of cases who required balloon dilatation due to severe intestinal stricture,"[1]; tranilast 200 mg three times daily orally, 12 cases, 5 cases in the group not given tranilast",1 case
same,incidence of intestinal obstruction/stricture symptoms due to intestinal stricture (cumulative non-symptomatic stricture rate),"[1]; tranilast 600 mg per day versus the group not given tranilast, p=0.0034",significantly inhibited; also recorded: significantly low
